From patent publication US20220160703A1, “TUMOR-SELECTIVE COMBINATION THERAPY” (The Board of Regents of The University of Texas System, priority 2019, published 2022)

Tests used:
[1] = test system: CD8 T cells; assay: Direct effect on CD8 T cells (apoptosis, proliferation, IFNγ); format: cell-based, mice; settings: tumor lethal dose of β-lap
Description: FIGS. 23A-D. IB-DNQ-mediated antitumor effect influences tumor microenvironment. 6×10^5 MC38 cells were subcutaneously transplanted into C57BL/6 mice (n=3/group). Tumor-bearing mice were treated with IB-DNQ (12 mg/kg, i.t.) or vehicle every other day for four times after tumor volumes reached to 50 mm^3. Tumors were collected 24 h later after the last IB-DNQ injection. (FIG. 23A) Flow cytometry analysis of tumor-infiltrating immune cells from vehicle and IB-DNQ treated tumors. (FIG. 23B) Quantification of immune populations from vehicle and IB-DNQ treated tumors. (FIG. 23C) T cell proliferation in the presence/absence of IB-DNQ. CFSE labeled splenocytes were treated with lethal dose IB-DNQ for 4 h followed by washing and stimulation with anti-CD3 (1 μg/ml) and anti-CD28 (2 μg/ml) for 48 h, proliferative CD8 T cells were then analyzed by flow cytometry assay. (FIG. 23D) Effect of IB-DNQ on T cells. […] 24 h later, cell death was analyzed by flow cytometry. […]
I3-Lap-induced-antitumor effect depends on dendritic cell-mediated T cell cross-priming. […] To rule out of direct effect of β-lap on CD8 T cells, the inventors evaluated the expression of NQO1 on CD8 T cells and the effect of β-lap on CD8 T cell survival, proliferation and function. […] IFNγ secretion was measured to evaluate the capability of DCs to prime the antigen specific T cells.

[2] = test system: NQO1 positive human lung carcinoma lines A549; assay: Cell survival of A549 cells (SRB); format: cell-based; settings: β-lap 0-6 μM 3 hr, survival 4 days later
Description: (FIG. 18A) B16 NQO1 #1 cells were subcutaneously transplanted into C57BL/6 WT and Rag1KO mice (n=5/group), respectively. Tumor bearing mice were treated with β-lap (0.3 mg, i.t.) every other day for four times. (FIG. 18B) Changes of the immune cells in the tumor microenvironment 7 days after β-lap treatment. C57BL/6 mice (n=4/group) were transplanted with MC38 cells and intratumorally treated with 0.3 mg of β-lap for two times. 7 days after the last treatment, tumor tissue was removed and digested, and immune cells were analyzed with flow cytometer (unpaired student t-test was used to analyze the significance of changes, *P<0.05, **P<0.01). (FIG. 18C) C57BL/6 mice were transplanted with MC38 cells and treated with β-lap (0.3 mg, i.t.) every other day for four times. For T cell depletion, 200 μg of anti-CD4 or anti-CD8 antibodies were injected four times at three days interval during the treatment. […] Data are shown as mean±SEM.
Sulforhodamine B (SRB) Cytotoxicity Assay. 4,000 cells were planted in 96 or 48 well plate with triplicates. After overnight growth, cells were exposed to β-lapachone with or without NQO1 inhibitor dicoumarol (50 μM) for a 3-hour pulse.

CC1(C)CCC2=C(O1)c1ccccc1C(=O)C2=O [β-lap, β-lapachone]
CD8 T cell apoptosis, anti-CD3/CD28 stimulated proliferation and IFNγ production [1]: no effect
response to β-lap in vitro [2]: sensitive
